Assay results published in patent US12655142B2 (Merck Patent GmbH, priority 2019, dated 2026).
pIC50: −log10 of the molar value. Counter-ions that a name gives are not always drawn. Like-named read-outs stand apart in the source and are kept apart here.

Key:
c-Kit(V654A) = molecular target: T1, c-Kit(V654A) (Homo sapiens, UniProt P10721, V654A); assay: c-Kit(V654A) assay (33P-ATP filter binding kinase assay); type: biochemical; conditions: recombinant human c-Kit aa 544-end V654A, ATP 200 μM
T1 construct: recombinant human c-Kit, amino acids 544-end containing the V654A mutation; GST (N)
T1 sequence (P10721 544-976 V654A): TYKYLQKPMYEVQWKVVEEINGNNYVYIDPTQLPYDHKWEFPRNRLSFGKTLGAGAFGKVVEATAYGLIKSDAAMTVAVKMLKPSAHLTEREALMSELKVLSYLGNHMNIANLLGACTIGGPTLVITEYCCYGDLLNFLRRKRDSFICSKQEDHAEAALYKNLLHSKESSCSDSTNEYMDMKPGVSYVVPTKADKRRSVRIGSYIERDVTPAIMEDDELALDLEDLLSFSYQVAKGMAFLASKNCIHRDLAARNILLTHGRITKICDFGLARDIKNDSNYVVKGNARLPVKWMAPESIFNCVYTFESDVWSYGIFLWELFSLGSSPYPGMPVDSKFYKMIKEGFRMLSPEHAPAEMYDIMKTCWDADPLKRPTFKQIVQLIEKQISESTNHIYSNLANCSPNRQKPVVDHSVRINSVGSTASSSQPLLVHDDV
Method in brief: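 Radiometric filter-binding read-out: substrate 33P incorporation counted by scintillation after P30 filtermat washes in 75 mM phosphoric acid and methanol. Enzyme: N-GST recombinant human c-Kit aa 544-end carrying V654A.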

[1] = molecular target: T2, GIST430/654 cell line expressing mutated constitutively active cKIT receptor tyrosine kinase (Δ560-576 deletion and V654A point mutation) (Homo sapiens, UniProt P10721, DEL560-576/V654A); assay: Cellular cKIT autophosphorylation (phospho-Y307-cKIT, Luminex bead assay) in GIST430/654 cells; type: cell-based; conditions: compounds 45 min, read-out: GIST 430/654 IC50
T2 construct: endogenous in cells; host or cells: GIST430/654 cells
T2 sequence (P10721 with tags, fused parts or gaps DEL560-576/V654A): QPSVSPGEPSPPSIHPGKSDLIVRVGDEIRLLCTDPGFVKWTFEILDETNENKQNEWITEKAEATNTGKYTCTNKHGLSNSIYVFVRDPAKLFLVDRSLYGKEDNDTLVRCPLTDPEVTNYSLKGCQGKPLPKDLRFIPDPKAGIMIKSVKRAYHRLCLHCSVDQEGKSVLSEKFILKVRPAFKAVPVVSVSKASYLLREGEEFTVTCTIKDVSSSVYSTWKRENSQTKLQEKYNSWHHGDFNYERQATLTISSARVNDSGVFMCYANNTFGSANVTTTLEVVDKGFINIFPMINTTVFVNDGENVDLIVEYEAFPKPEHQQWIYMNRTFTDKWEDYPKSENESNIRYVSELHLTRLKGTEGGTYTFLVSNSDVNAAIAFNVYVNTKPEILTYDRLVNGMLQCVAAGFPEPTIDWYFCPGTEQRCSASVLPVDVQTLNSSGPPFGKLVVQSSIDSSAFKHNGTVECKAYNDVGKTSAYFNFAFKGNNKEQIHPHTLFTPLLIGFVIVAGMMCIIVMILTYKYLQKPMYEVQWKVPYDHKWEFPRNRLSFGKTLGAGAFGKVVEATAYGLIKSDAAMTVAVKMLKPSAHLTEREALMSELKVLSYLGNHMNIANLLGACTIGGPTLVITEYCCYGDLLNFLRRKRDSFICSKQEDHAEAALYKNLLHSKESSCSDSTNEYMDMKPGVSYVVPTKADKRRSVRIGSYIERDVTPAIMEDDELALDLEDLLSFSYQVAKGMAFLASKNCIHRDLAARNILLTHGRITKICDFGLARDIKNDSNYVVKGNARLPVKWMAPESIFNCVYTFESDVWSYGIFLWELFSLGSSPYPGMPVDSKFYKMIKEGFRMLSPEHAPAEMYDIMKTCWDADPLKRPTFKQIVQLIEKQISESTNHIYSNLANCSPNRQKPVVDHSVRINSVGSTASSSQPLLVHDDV
Method in brief: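 Phospho-Y307 cKIT in lysates was measured on a Luminex bead assay, with total-cKIT capture overnight at 4 °C and phosphospecific plus PE secondary detection. Cells had 45 min exposure to a compound dilution series the day after plating: GIST430 (Δ560-576) or GIST430/654 (Δ560-576/V654A, grown with 100 nM imatinib). IC50 values are relative to 0.3% DMSO-treated cells.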

[2] = molecular target: T3, GIST430 cell line expressing constitutive active cKIT receptor tyrosine kinase (Δ560-576 deletion) (Homo sapiens, UniProt P10721, DEL560-576); assay: Cellular cKIT autophosphorylation (phospho-Y307-cKIT, Luminex bead assay) in GIST430 cells; type: cell-based
T3 construct: endogenous in cells; host or cells: GIST430 cells
T3 sequence (P10721 with tags, fused parts or gaps DEL560-576): as the sequence (P10721 with tags, fused parts or gaps DEL560-576/V654A) above, with A612V counted along it
Experimental: Assay Principle for Cellular Testing of cKIT Mutant Inhibitors
The GIST430 cell line expressing constitutive active cKIT receptor tyrosine kinase (Δ560-576 deletion) and the Imatinib resistant GIST430/654 cell line expressing mutated constitutively active cKIT receptor tyrosine kinase (Δ560-576 deletion and V654A point mutation) were employed for assessing cellular potency of compounds. Cellular activity of mutant cKIT was determined by the degree of cKIT autophosphorylation at tyrosine 307 using a Luminex-based bead assay. GIST430 cells were plated with 22,000 cells per well of a 96-well plate in 100 μl medium (85% IMDM/15% FCS) and GIST430/654 cells were plated with 25,000 cells per well of a 96-well plate in 100 μl medium (85% IMDM/15% FCS supplemented with 100 nM Imatinib). At the following day compounds were added in a serial dilution for 45 min. Then, cells were lysed with 90 μl lysis buffer (20 mM Hepes pH 7.5, 200 mM NaCl, 1.5 mM MgCl2×6H2O, 0.4 mM EDTA, 1% Triton-X-100, 1% Phosphatase-Inhibitor II, 20 mM β-Glycerolphosphat, 0.1% Protease-Inhibitor Cocktail III, 0.01% Benzonase) and lysates were cleared by centrifugation through a 96-well filter plate (0.65 μm). Samples were incubated with Luminex-beads which were coupled with an anti-total cKIT antibody overnight at 4° C. under gentle agitation. For detection of phospho-Y307-cKIT a phosphospecific antibody and a species-specific PE-labeled secondary antibody were added. The amount of phospho-Y307-cKIT was determined in a Luminex 200 instrument measuring 100 events per well within 60 seconds.
Counts from samples treated with compounds were calculated as percent of control from solvent treated (0.3% DMSO) samples. Dose-response curves were fitted and IC50 values were determined using Genedata Screener software.

[3] = Determination of Efflux-Ratio (ER) in Caco-2 cells; conditions: human, Caco-2, pH 7.4
Experimental: Determination of Efflux-Ratio (ER) in Caco-2 Cells
The efflux ratio of the test compounds was determined in Caco-2 human epithelial colorectal adenocarcinoma cell line (TC7 clone) using calculation of apparent permeability (Papp). Cell monolayers were differentiated in vitro for 14 days before the experiment. Subsequently, the test compound (in HBSS pH 7.4 at 1 μM final concentration) was applied on the donor side while HBSS buffer (pH 7.4) was added to the receiver wells. […] The plate was then incubated in a 5% CO2 incubator (37° C., 100% humidity). At the end of the 2 hours incubation period, 50 μL sample was removed from both donor and receiver wells and diluted 1:1 with equal volumes of acetonitrile for LC-MS/MS analysis. The LC-MS/MS analysis used a one-point calibration method from a 1 μM standard solution diluted 1:1 with equal volume of acetonitrile (consistent to the test samples).
The data was used to calculate the apparent permeabilities of the compounds in both apical to basolateral (Papp,AB) and basolateral to apical (Papp,BA) directions at 1 μM concentration in duplicate. The Papp values were calculated from the concentrations in the donor and receiver compartments using the following formula:
Efflux ratio was calculated according to the following formula:

Row | pIC50 (c-Kit(V654A)) | pIC50 [1] | pIC50 ([2]; cKIT autophosphorylation, GIST430 cells, compounds 45 min, read-out: GIST 430 IC50) | IC50 ([2]; cell line not specified (GIST), read-out: IC50 [M] GIST) [M] | efflux ratio at 2 h, 1 μM [3] | Compound
1 | 7.04 | 4.52 | 7.29 |  |  | Cc1cc(N2CC[C@H](F)C2)ncc1CNc1cc(-c2cnc3ccccn23)ncn1 [A155, [6-((S)-3-fluoro-pyrrolidin-1-yl)-4-methyl-pyridin-3-ylmethyl]-(6-imidazo[1,2-a]pyridin-3-yl-pyrimidin-4-yl)-amine]
2 | 8.24 |  |  | 2.1e-09 |  | Cn1cc(-c2ccc(CNc3cc(-c4cnc5cc(OCCCN6CCCC6)ccn45)ncn3)cc2)cn1 [A75 hydrochloride, [4-(1-methyl-1H-pyrazol-4-yl)-benzyl]-{6-[7-(3-pyrrolidin-1-yl-propoxy)-imidazo[1,2-a]pyridin-3-yl]-pyrimidin-4-yl}-amine hydrochloride]
3 | 8.32 | 7.31 |  |  | < 15 | Cn1cc(-c2ccc(CNc3cc(-c4cnc5cc(OCCCN6CCOCC6)ccn45)ncn3)cc2)cn1 [A74, [4-(1-methyl-1H-pyrazol-4-yl)-benzyl]-{6-[7-(3-morpholin-4-yl-propoxy)-imidazo[1,2-a]pyridin-3-yl]-pyrimidin-4-yl}-amine]
4 | 7.85 | 6.85 |  |  | < 15 | Cn1cc(-c2ccc(CNc3cc(-c4cnc5cc(OCCN6CCC(C)(F)CC6)ccn45)ncn3)cc2)cn1 [A196, (6-{7-[2-(4-fluoro-4-methyl-piperidin-1-yl)-ethoxy]-imidazo[1,2-a]pyridin-3-yl}-pyrimidin-4-yl)-[4-(1-methyl-1H-pyrazol-4-yl)-benzyl]-amine]
5 | 8.01 | 6.96 |  |  | < 15 | COCCOc1ccn2c(-c3cc(NCc4ccc(-c5cnn6c5CCC6)cc4)ncn3)cnc2c1 [A17, 6-[7-(2-methoxyethoxy)imidazo[1,2-a]pyridin-3-yl]-N-[(4-{4H,5H,6H-pyrrolo[1,2-b]pyrazol-3-yl}phenyl)methyl]pyrimidin-4-amine]
6 | 7.62 | 7.20 |  |  | < 15 | Cn1cc(-c2ccc(CNc3cc(-c4cnc5cc(N6CCN(C7COC7)CC6)ccn45)ncn3)cc2)cn1 [A230, [4-(1-methyl-1H-pyrazol-4-yl)-benzyl]-{6-[7-(4-oxetan-3-yl-piperazin-1-yl)-imidazo[1,2-a]pyridin-3-yl]-pyrimidin-4-yl}-amine]
7 | 8.00 | 6.92 |  |  | > 50 | Cn1cc(-c2ccc(CNc3cc(-c4cnc5cc(OCCN6CC(S(C)(=O)=O)C6)ccn45)ncn3)cc2)cn1 [A215, (6-{7-[2-(3-methanesulfonyl-azetidin-1-yl)-ethoxy]-imidazo[1,2-a]pyridin-3-yl}-pyrimidin-4-yl)-[4-(1-methyl-1H-pyrazol-4-yl)-benzyl]-amine]
8 | 8.32 | 7.19 |  |  | > 50 | CN1CCN(CCOc2ccn3c(-c4cc(NCc5ccc(-n6ccnn6)cc5)ncn4)cnc3c2)CC1 [A67, (6-{7-[2-(4-methyl-piperazin-1-yl)-ethoxy]-imidazo[1,2-a]pyridin-3-yl}-pyrimidin-4-yl)-(4-[1,2,3]triazol-1-yl-benzyl)-amine]
9 | 8.01 | 6.38 |  |  | > 50 | Cn1cc(-c2ccc(CNc3cc(-c4cnc5cc(OCCN6CCn7cnnc7C6)ccn45)ncn3)cc2)cn1 [A203, (6-{7-[2-(5,6-dihydro-8H-[1,2,4]triazolo[4,3-a]pyrazin-7-yl)-ethoxy]-imidazo[1,2-a]pyridin-3-yl}-pyrimidin-4-yl)-[4-(1-methyl-1H-pyrazol-4-yl)-benzyl]-amine]
10 | 7.96 | 6.70 |  |  | < 15 | Cn1cc(-c2ccc(CNc3cc(-c4cnc5cc(OCCN6CCn7cccc7C6)ccn45)ncn3)cc2)cn1 [A218, (6-{7-[2-(3,4-dihydro-1H-pyrrolo[1,2-a]pyrazin-2-yl)-ethoxy]-imidazo[1,2-a]pyridin-3-yl}-pyrimidin-4-yl)-[4-(1-methyl-1H-pyrazol-4-yl)-benzyl]-amine]
11 | 7.96 | 7.59 |  |  | < 15 | Cn1cc(-c2ccc(CNc3cc(-c4cnc5cc(OCCN6CC(F)C6)ccn45)ncn3)cc2)cn1 [A140, 6-{7-[2-(3-fluoroazetidin-1-yl)ethoxy]imidazo[1,2-a]pyridin-3-yl}-N-{[4-(1-methyl-1H-pyrazol-4-yl)phenyl]methyl}pyrimidin-4-amine]
12 | 8.49 | 7.08 |  |  | > 50 | Cn1ncc(-c2ccc(CNc3cc(-c4cnc5cc(OCCC6CCNC6)ccn45)ncn3)cc2)n1 (centres unmarked) [A176, [4-(2-methyl-2H-[1,2,3]triazol-4-yl)-benzyl]-{6-[7-(2-pyrrolidin-3-yl-ethoxy)-imidazo[1,2-a]pyridin-3-yl]-pyrimidin-4-yl}-amine]
13 | 7.96 | 6.85 |  |  | < 15 | COC1(C)CCN(CCOc2ccn3c(-c4cc(NCc5ccc(-c6cnn(C)c6)cc5)ncn4)cnc3c2)CC1 [A220, (6-{7-[2-(4-methoxy-4-methyl-piperidin-1-yl)-ethoxy]-imidazo[1,2-a]pyridin-3-yl}-pyrimidin-4-yl)-[4-(1-methyl-1H-pyrazol-4-yl)-benzyl]-amine]
14 | 7.80 | 6.74 |  |  | < 15 | Cc1noc(C2CN(CCOc3ccn4c(-c5cc(NCc6ccc(-c7cnn(C)c7)cc6)ncn5)cnc4c3)C2)n1 [A213, [6-(7-{2-[3-(3-methyl-[1,2,4]oxadiazol-5-yl)-azetidin-1-yl]-ethoxy}-imidazo[1,2-a]pyridin-3-yl)-pyrimidin-4-yl]-[4-(1-methyl-1H-pyrazol-4-yl)-benzyl]-amine]
15 | 8.01 | 6.32 |  |  | > 50 | Cn1cc(-c2ccc(CNc3cc(-c4cnc5cc(OCCC6CCNC6)ccn45)ncn3)cc2)cn1 (centres unmarked) [A175, [4-(1-methyl-1H-pyrazol-4-yl)-benzyl]-{6-[7-(2-pyrrolidin-3-yl-ethoxy)-imidazo[1,2-a]pyridin-3-yl]-pyrimidin-4-yl}-amine]
16 | 8.17 | 7.08 |  |  | < 15 | Cn1cc(-c2ccc(CNc3cc(-c4cnc5cc(OCC(C)(C)O)ccn45)ncn3)cc2)cn1 [A64, 2-methyl-1-(3-{6-[4-(1-methyl-1H-pyrazol-4-yl)-benzylamino]-pyrimidin-4-yl}-imidazo[1,2-a]pyridin-7-yloxy)-propan-2-ol]
17 | 8.38 | 6.85 |  |  | < 15 | COc1ccn2c(-c3cc(NCc4ccc(-c5cnn(C)c5)s4)ncn3)cnc2c1 [A36, 6-{7-methoxyimidazo[1,2-a]pyridin-3-yl}-N-{[5-(1-methyl-1H-pyrazol-4-yl)thiophen-2-yl]methyl}pyrimidin-4-amine]
18 | 7.77 | 7.03 |  |  | < 15 | Cn1cc(-c2ccc(CNc3cc(-c4cnc5cc(OCCN6CCC(C)(C#N)CC6)ccn45)ncn3)cc2)cn1 [A222, 4-methyl-1-[2-(3-{6-[4-(1-methyl-1H-pyrazol-4-yl)-benzylamino]-pyrimidin-4-yl}-imidazo[1,2-a]pyridin-7-yloxy)-ethyl]-piperidine-4-carbonitrile]
19 | 8.59 | 7.52 |  |  | < 15 | Cn1ncc(-c2ccc(CNc3cc(-c4cnc5cc(OCCCN6CCOCC6)ccn45)ncn3)cc2)n1 [A133]
20 | 7.70 | 7.12 |  |  | < 15 | Cn1cc(-c2ccc(CNc3cc(-c4cnc5cc(OCCCN6CCN(C7COC7)CC6)ccn45)ncn3)cc2)cn1 [A184, [4-(1-methyl-1H-pyrazol-4-yl)-benzyl]-(6-{7-[3-(4-oxetan-3-yl-piperazin-1-yl)-propoxy]-imidazo[1,2-a]pyridin-3-yl}-pyrimidin-4-yl)-amine]
